Assay results published in article PMC12040169 (PLOS Biology, 2025).

What was measured:
[1] = tested on: T1, C. trachomatis L2/434/Bu expressing GFP (CTL2-GFP); assay: microbe, parasite or virus in culture; set-up: C. trachomatis total inclusion area by high-content imaging, normalised to DMSO; settings: Chlamydia trachomatis, HeLa, 28.5 h; total inclusion area; read-out: % of control remaining
T1 construct: L2/434/Bu GFP intracellular growth in HeLa cells
Excerpt: We screened a library of 36,785 small molecules displaying drug-like properties and covering a wide chemical space (Fig 1A and S2A Data). In this process, we also complemented the assay described above with an imaging-based readout (Fig 1B). After measurements of bulk GFP and resorufin fluorescence, cells were fixed, stained with the DNA dye Hoechst, and imaged at a high-content imaging platform to detect chlamydial inclusions (GFP) and host cell nuclei (Hoechst). The total area and number of inclusions in individual wells and the number of nuclei then served as additional proxies for chlamydial growth and host cell viability. […] MICs were calculated as described above.

[2] = tested on: T2, CTL2-GFP (C. trachomatis L2/434/Bu, GFP-expressing); assay: microbe, parasite or virus in culture; set-up: Intracellular C. trachomatis growth in HeLa cells, bulk GFP fluorescence relative to DMSO; settings: Chlamydia trachomatis, HeLa, 28.5 h; bulk GFP, mean of 2; read-out: % of control remaining
T2 construct: L2/434/Bu, GFP-expressing
Protocol: MICs were calculated as described above.

[3] = in vitro; set-up: Viability of infected HeLa host cells, resazurin conversion, bulk resorufin fluorescence relative to DMSO; settings: human, hela cells; bulk resorufin, mean of 2

Cn1nnnc1-c1cccc(NC(=O)c2ccc(Oc3ccccc3)cc2)c1 [CBK297872]
activity at 1 µM [1]: 118%
activity at 5 µM [1]: 74.5%
activity at 10 µM [1]: 30.8%
activity at 1 µM [2]: 124%
activity at 5 µM [2]: 73.3%
activity at 10 µM [2]: 27.8%
viability at 28.5 h, 1 µM [3]: 95.1%
viability at 28.5 h, 5 µM [3]: 88.4%
viability at 28.5 h, 10 µM [3]: 89.1%

O=C(CC1SC(Nc2ccc(O)cc2)=NC1=O)c1ccccc1 (stereo not drawn) [CBK267009]
activity at 1 µM [1]: 84.6%
activity at 5 µM [1]: 35.2%
activity at 10 µM [1]: 35.5%
activity at 1 µM [2]: 65.7%
activity at 5 µM [2]: 34%
activity at 10 µM [2]: 33%
viability at 28.5 h, 1 µM [3]: 114%
viability at 28.5 h, 5 µM [3]: 112%
viability at 28.5 h, 10 µM [3]: 107%

CCCCc1ccc(NC(=N)Nc2nc(C)cc(C)n2)cc1 [CBK262967]
activity at 1 µM [1]: 75.4%
activity at 5 µM [1]: 38.5%
activity at 10 µM [1]: 9.61%
activity at 1 µM [2]: 89.4%
activity at 5 µM [2]: 33.4%
activity at 10 µM [2]: 22%
viability at 28.5 h, 1 µM [3]: 90.3%
viability at 28.5 h, 5 µM [3]: 95.4%
viability at 28.5 h, 10 µM [3]: 90%

CC(C(=O)N1CCC2(CC1)NC(=O)c1ccccc1N2)(c1ccccc1)c1ccccc1 [CBK286308]
activity at 1 µM [1]: 82.6%
activity at 5 µM [1]: 44.9%
activity at 10 µM [1]: 28.3%
activity at 1 µM [2]: 96.5%
activity at 5 µM [2]: 59.6%
activity at 10 µM [2]: 46.3%
viability at 28.5 h, 1 µM [3]: 97.7%
viability at 28.5 h, 5 µM [3]: 93.1%
viability at 28.5 h, 10 µM [3]: 101%

O=C1CC[C@@H](NCc2cccs2)[C@H](c2cc(F)cc(F)c2)N1 [CBK283129]
activity at 1 µM [1]: 98.3%
activity at 5 µM [1]: 76.7%
activity at 10 µM [1]: 78.8%
activity at 1 µM [2]: 98.3%
activity at 5 µM [2]: 98.8%
activity at 10 µM [2]: 82.2%
viability at 28.5 h, 1 µM [3]: 112%
viability at 28.5 h, 5 µM [3]: 109%
viability at 28.5 h, 10 µM [3]: 110%

CCc1ccc(S(=O)(=O)Nc2cc(SCC(=O)O)c(O)c3ccccc23)cc1 [CBK265580]
activity at 1 µM [1]: 84.1%
activity at 5 µM [1]: 15.3%
activity at 10 µM [1]: 7.41%
activity at 1 µM [2]: 97.7%
activity at 5 µM [2]: 47%
activity at 10 µM [2]: 37.3%
viability at 28.5 h, 1 µM [3]: 95.6%
viability at 28.5 h, 5 µM [3]: 88.8%
viability at 28.5 h, 10 µM [3]: 81.9%

Cc1ccc(CNC(=O)OCc2cccnc2C)o1 [CBK200131]
activity at 1 µM [1]: 120%
activity at 5 µM [1]: 61.9%
activity at 10 µM [1]: 91.2%
activity at 1 µM [2]: 120%
activity at 5 µM [2]: 111%
activity at 10 µM [2]: 119%
viability at 28.5 h, 1 µM [3]: 102%
viability at 28.5 h, 5 µM [3]: 104%
viability at 28.5 h, 10 µM [3]: 101%

CCc1nnc(NS(=O)(=O)c2ccc(NC(=S)NC(=O)c3ccco3)cc2)s1 [CBK018917]
activity at 1 µM [1]: 79.7%
activity at 5 µM [1]: 57%
activity at 10 µM [1]: 24.2%
activity at 1 µM [2]: 117%
activity at 5 µM [2]: 56.1%
activity at 10 µM [2]: 18.8%
viability at 28.5 h, 1 µM [3]: 100%
viability at 28.5 h, 5 µM [3]: 94.7%
viability at 28.5 h, 10 µM [3]: 115%

Cc1cccc(OCC(C)NC(=O)NCCc2cnn(C)c2)c1 (stereo not drawn) [CBK304887]
activity at 1 µM [1]: 120%
activity at 5 µM [1]: 47.6%
activity at 10 µM [1]: 19.4%
activity at 1 µM [2]: 115%
activity at 5 µM [2]: 43.5%
activity at 10 µM [2]: 16.5%
viability at 28.5 h, 1 µM [3]: 100%
viability at 28.5 h, 5 µM [3]: 98.5%
viability at 28.5 h, 10 µM [3]: 89.3%

CCCCCC(=O)Nc1ccc(S(=O)(=O)Nc2nnc(CC)s2)cc1 [CBK045478]
activity at 1 µM [1]: 122%
activity at 5 µM [1]: 53%
activity at 10 µM [1]: 48.9%
activity at 1 µM [2]: 137%
activity at 5 µM [2]: 47.1%
activity at 10 µM [2]: 29.6%
viability at 28.5 h, 1 µM [3]: 94.8%
viability at 28.5 h, 5 µM [3]: 93.6%
viability at 28.5 h, 10 µM [3]: 91.2%

O=C(Nc1ncc(-c2ccccc2)s1)c1cccc([N+](=O)[O-])c1 [CBK157055]
activity at 1 µM [1]: 86.4%
activity at 5 µM [1]: 88.1%
activity at 10 µM [1]: 56.9%
activity at 1 µM [2]: 110%
activity at 5 µM [2]: 86.9%
activity at 10 µM [2]: 76.9%
viability at 28.5 h, 1 µM [3]: 114%
viability at 28.5 h, 5 µM [3]: 102%
viability at 28.5 h, 10 µM [3]: 114%

CC(=O)N1CCc2sccc2C1c1ccccc1NCc1ccoc1 (stereo not drawn) [CBK286432]
activity at 1 µM [1]: 61.5%
activity at 5 µM [1]: 24.5%
activity at 10 µM [1]: 22.5%
activity at 1 µM [2]: 87.1%
activity at 5 µM [2]: 34%
activity at 10 µM [2]: 26.3%
viability at 28.5 h, 1 µM [3]: 85%
viability at 28.5 h, 5 µM [3]: 86.8%
viability at 28.5 h, 10 µM [3]: 85.9%

COc1cc(/C=N/c2cccc3c(/N=C/c4ccc(O)c(OC)c4)cccc23)ccc1O [CBK261224]
activity at 1 µM [1]: 114%
activity at 5 µM [1]: 68%
activity at 10 µM [1]: 40.8%
activity at 1 µM [2]: 120%
activity at 5 µM [2]: 67.3%
activity at 10 µM [2]: 44%
viability at 28.5 h, 1 µM [3]: 89.7%
viability at 28.5 h, 5 µM [3]: 86.7%
viability at 28.5 h, 10 µM [3]: 81.8%
